This note sets out measurements from US20260060960A1, “GAMMA-SECRETASE INHIBITORS FOR USE IN THE TREATMENT OF INHERITED EPIDERMOLYSIS BULLOSA” (OSPEDALE PEDIATRICO BAMBINO GESU', priority 2022, published 2026).

Structures are written as SMILES.

The subject of assay [1] is α-SMA, TAGLN, CNN1, JAG1. The assay is described as follows: Immunoblotting of myofibroblast/fibrotic markers in RDEB fibroblasts. It counts as cell-based, human. The settings on record: RDEB-FBs, 24 h, absence and presence of TGF-β1. An excerpt: Whole-cell lysates were obtained in radioimmunoprecipitation assay (RIPA) buffer (Sigma-Aldrich) supplemented with phosphatase- and protease inhibitors (Merck). Different amounts of protein lysates were run under reducing conditions by using 4-12% gradient precast gels (Thermo Fisher Scientific) or hand-casting polyacrylamide gels (4-8%), depending on the protein to be assayed. Amersham™ Protran® Premium nitrocellulose membranes (pore size 0.2 μm) (Merck) were immunoblotted with primary antibodies indicated in Table 3 and incubated with horseradish peroxidase-linked secondary antibodies.
Detection was performed using Cytiva ECL™ Prime Western Blotting System (Merck) or SuperSignal West Femto (Thermo Fisher Scientific), depending on the protein to be assayed. Antibody against Notch1 (all forms; clone bTAN20) was obtained from the Developmental Studies Hybridoma Bank (DSHB) at the University of Iowa (DSHB, Iowa City, IA, USA). GAPDH (clone 14C10), Jagged1 (clone 28H8) and NOTCH1 intracellular domain (clone D3B8) were obtained from Cell Signaling (Cell Signaling Technology Inc., Beverly, MA, USA). Antibodies against TAGLN (clone #859112) and CNN1 (clone #836701) were from R&D Systems (R&D Systems, Inc. Minneapolis, MN, USA). Antibody against α-SMA (clone 1A4) was purchased from Sigma-Aldrich. Antibody against lamin B1 (LMNB1) was from Abcam (Cambridge, UK). […]
A general note: In western blotting, separated proteins are transferred to a membrane and probed.

The subject of assay [2] is α-SMA, CNN1, TAGLN, JAG1, HES1, POSTN, Pri-miR-143/145 mRNA. Kind of assay: Real-time PCR of contractile/fibrotic markers in RDEB fibroblasts. The settings on record: RDEB-FBs. Format: cell-based, human. An excerpt:
Total was extracted by TRIzol (Thermo Fisher Scientific) by monolayer fibroblast cultures, following manufacturer's instructions. RNA was reverse transcribed and amplified by using Power SYBR Green RNA-to-Ct 1-Step Kit (Thermo Fisher Scientific) on QuantStudio™ 7 Pro Real-Time PCR System (Thermo Fisher Scientific). Primer pairs used in this study are listed in Table 2: ACTA2, actin alpha 2, smooth muscle; CNN1, calponin; COL1A1, collagen type I alpha 1 chain; GAPDH, glyceraldehyde-3-phosphate dehydrogenase; HES1, hes family bHLH transcription factor 1; JAG1, jagged canonical Notch ligand 1; NOTCH1, notch receptor 1; POSTN, periostin; TAGLN, transgelin.
Relative mRNA expression levels were measured by the 2−ΔΔCT method. Hypoxanthine phosphoribosyltransferase 1 (HPRT1) was used as housekeeping gene to normalize mRNA expression levels.
For orientation: Real-time PCR tracks product formation cycle by cycle.

Regarding `CCC[C@H](N[C@H]1CCc2cc(F)cc(F)c2C1)C(=O)Nc1cn(C(C)(C)CNCC(C)(C)C)cn1` [PF-03084014, (S)-2-((S)-5,7-difluoro-1,2,3,4-tetrahydronaphthalen-3-ylamino)-N-(1-(2-methyl-1-(neopentylamino)propan-2-yl)-1H-imidazol-4-yl)pentanamide], the “protein levels of contractile and fibrotic markers (immunoblotting)” value in assay [1] is “down-regulation of the prototypical contractile and fibrotic markers, including JAG1”. For the same molecule, the “mRNA levels of HES1, periostin and Pri-miR-143/145” value in assay [2] is on record as “context-dependent downregulation”. In assay [2] (basal conditions and presence of TGF-β1), the “mRNA levels of contractile/fibrotic markers (real-time PCR)” value was “down-regulation of a selection of contractile/fibrotic markers, including α-SMA, CNN1, TAGLN and JAG1”.
